These results are taken from patent publication US8614327B2 (Vertex Pharmaceuticals Incorporated, priority 2004, dated 2013).

This experiment addresses T1, ΔF508-CFTR (Homo sapiens, UniProt P13569, DEL508-508).
T1 construct: expressed in transfected cells
Description: Membrane potential optical (FRET/VIPR) assay, identification of potentiator compounds. The experiment is classed as cell-based. As to conditions: Table 3, assay not given; for % Activity: relative efficacy. The essentials: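 Double-addition potentiator screen: compound delivered in gluconate-substituted Cl^--free medium, membrane potential followed via CC2-DMPE/DiSBAC2(3) FRET on VIPR. Cells were ΔF508-CFTR-expressing NIH3T3 mouse fibroblasts, held 2 h at 37° C. then 24 h at 27° C. before assay.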

T1 sequence (P13569 with tags, fused parts or gaps DEL508-508): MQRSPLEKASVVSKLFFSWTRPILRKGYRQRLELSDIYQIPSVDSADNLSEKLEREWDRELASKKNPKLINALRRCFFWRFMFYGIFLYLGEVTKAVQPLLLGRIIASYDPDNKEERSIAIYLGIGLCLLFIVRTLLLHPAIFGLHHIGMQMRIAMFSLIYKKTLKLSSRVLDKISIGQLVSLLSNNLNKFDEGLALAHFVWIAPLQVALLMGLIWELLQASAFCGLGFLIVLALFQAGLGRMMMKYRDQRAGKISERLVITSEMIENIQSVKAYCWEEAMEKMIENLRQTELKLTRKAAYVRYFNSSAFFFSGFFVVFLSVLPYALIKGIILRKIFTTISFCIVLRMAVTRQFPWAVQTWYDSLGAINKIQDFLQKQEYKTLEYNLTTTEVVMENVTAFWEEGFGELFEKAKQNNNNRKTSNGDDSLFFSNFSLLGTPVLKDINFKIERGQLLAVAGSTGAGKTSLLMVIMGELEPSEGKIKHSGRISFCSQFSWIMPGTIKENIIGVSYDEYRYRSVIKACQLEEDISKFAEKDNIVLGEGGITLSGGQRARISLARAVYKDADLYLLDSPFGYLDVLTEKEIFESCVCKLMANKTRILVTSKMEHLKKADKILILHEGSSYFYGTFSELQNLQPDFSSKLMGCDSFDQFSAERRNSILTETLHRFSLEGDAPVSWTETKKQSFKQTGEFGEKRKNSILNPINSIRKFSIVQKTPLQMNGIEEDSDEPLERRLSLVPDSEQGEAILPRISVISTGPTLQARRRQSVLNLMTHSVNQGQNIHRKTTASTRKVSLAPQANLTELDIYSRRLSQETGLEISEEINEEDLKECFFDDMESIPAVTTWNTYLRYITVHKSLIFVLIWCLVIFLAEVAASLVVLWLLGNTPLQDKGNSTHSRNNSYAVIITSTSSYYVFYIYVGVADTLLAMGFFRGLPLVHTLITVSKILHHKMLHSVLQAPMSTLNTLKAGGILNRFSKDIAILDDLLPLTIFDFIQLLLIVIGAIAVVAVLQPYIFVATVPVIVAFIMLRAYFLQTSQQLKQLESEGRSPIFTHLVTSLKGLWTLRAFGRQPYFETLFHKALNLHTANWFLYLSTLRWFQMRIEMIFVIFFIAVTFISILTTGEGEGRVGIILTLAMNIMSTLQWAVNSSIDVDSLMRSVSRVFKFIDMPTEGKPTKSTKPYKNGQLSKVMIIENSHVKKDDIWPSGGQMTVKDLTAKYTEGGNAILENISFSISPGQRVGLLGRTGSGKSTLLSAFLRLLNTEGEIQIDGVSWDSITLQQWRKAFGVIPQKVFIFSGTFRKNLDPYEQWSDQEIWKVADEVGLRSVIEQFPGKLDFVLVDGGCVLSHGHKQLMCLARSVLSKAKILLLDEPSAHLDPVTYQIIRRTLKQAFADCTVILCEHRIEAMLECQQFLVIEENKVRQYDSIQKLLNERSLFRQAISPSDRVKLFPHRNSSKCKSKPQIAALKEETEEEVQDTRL

In the case of `COC(=O)Nc1cc(NC(=O)c2c[nH]c3ccccc3c2=O)ccc1C(C)C` [Compound 30, [2-isopropyl-5-[(4-oxo-1H-quinolin-3-yl)carbonylamino]phenyl]aminoformic acid methyl ester], the EC50 – broadly, the concentration that produces a half-maximal response – is below 10 µM and the “% Activity” value is given as “++ (between 25% to 100%)”.

`Cc1cccc2c(=O)c(C(=O)Nc3ccc(C(C)C)cc3C(F)(F)F)c[nH]c12` [Compound 637, N-[4-isopropyl-2-(trifluoromethyl)phenyl]-8-methyl-4-oxo-1H-quinoline-3-carboxamide]: the EC50 was below 10 µM and the “% Activity” value is reported as “+ (<25%)”.

Regarding `O=C(Nc1ccccc1)c1c[nH]c2cc(Cl)ccc2c1=O` [Compound 411, 7-chloro-4-oxo-N-phenyl-1H-quinoline-3-carboxamide], the EC50 is below 10 µM and the “% Activity” value is on record as “++ (between 25% to 100%)”.

For `O=C(Nc1cccc2cc[nH]c12)c1c[nH]c2ccccc2c1=O` [Compound 37, N-(1H-indol-7-yl)-4-oxo-1H-quinoline-3-carboxamide], the EC50 was below 10 µM and the “% Activity” value was “++ (between 25% to 100%)”.

`O=C(Nc1ccccc1Oc1ccccc1)c1c[nH]c2ccccc2c1=O` [Compound 413, 4-oxo-N-(2-phenoxyphenyl)-1H-quinoline-3-carboxamide]: the concentration giving a half-maximal response (EC50) is below 10 µM and the “% Activity” value was “++ (between 25% to 100%)”.

On to `CCOc1cccc2c(=O)c(C(=O)Nc3cc(O)c(C(C)(C)C)cc3C(C)(C)C)c[nH]c12` [Compound 616, 8-ethoxy-N-(5-hydroxy-2,4-ditert-butyl-phenyl)-4-oxo-1H-quinoline-3-carboxamide], for which the EC50 lay in the range of 10 to 25 µM and the “% Activity” value is reported as “+ (<25%)”.

Consider `NC(=O)c1cccc(NC(=O)c2c[nH]c3ccccc3c2=O)c1` [Compound 179, N-(3-carbamoylphenyl)-4-oxo-1H-quinoline-3-carboxamide], for which the EC50 lay within 25 to 60 µM and the “% Activity” value was “+ (<25%)”.

With `Cc1ccc(-c2ccccc2NC(=O)c2c[nH]c3ccccc3c2=O)o1` [Compound 311, N-[2-(5-methyl-2-furyl)phenyl]-4-oxo-1H-quinoline-3-carboxamide], the EC50 is below 10 µM and the “% Activity” value is given as “++ (between 25% to 100%)”.

With `CC(C)(C)c1cc(C(C)(C)C)c(NC(=O)c2c[nH]c3c(C(F)(F)F)cccc3c2=O)cc1O` [Compound 580, N-(5-hydroxy-2,4-ditert-butyl-phenyl)-4-oxo-8-(trifluoromethyl)-1H-quinoline-3-carboxamide], the half-maximal effective concentration (EC50) was below 10 µM and the “% Activity” value was “+ (<25%)”.

`CC(C)c1ccccc1NC(=O)c1c[nH]c2ccccc2c1=O` [Compound 36, N-(2-isopropylphenyl)-4-oxo-1H-quinoline-3-carboxamide]: the EC50 is below 10 µM and the “% Activity” value is given as “++ (between 25% to 100%)”.

For `C=Cc1ccc(NC(=O)c2c[nH]c3ccccc3c2=O)cc1` [Compound 452, 4-oxo-N-(4-vinylphenyl)-1H-quinoline-3-carboxamide], the EC50 was below 10 µM and the “% Activity” value was “++ (between 25% to 100%)”.

Consider `O=C(Nc1cccc(Cc2ccccc2)c1)c1c[nH]c2ccccc2c1=O` [Compound 389, N-(3-benzylphenyl)-4-oxo-1H-quinoline-3-carboxamide], for which the EC50 was below 10 µM and the “% Activity” value is recorded as “++ (between 25% to 100%)”.

Consider `Cc1ccc(C)n1-c1ccccc1NC(=O)c1c[nH]c2ccccc2c1=O` [Compound 297, N-[2-(2,5-dimethyl-1H-pyrrol-1-yl)phenyl]-4-oxo-1H-quinoline-3-carboxamide], for which the EC50 was below 10 µM and the “% Activity” value is recorded as “++ (between 25% to 100%)”.

For `CC(=O)N1CCc2ccc(NC(=O)c3c[nH]c4ccccc4c3=O)cc21` [Compound 233, N-(1-acetylindolin-6-yl)-4-oxo-1H-quinoline-3-carboxamide], the EC50 was 10 to 25 µM and the “% Activity” value is “+ (<25%)”.

`Cc1cccc2[nH]cc(C(=O)Nc3ccc(N4CCC(F)(F)C4)cc3C(F)(F)F)c(=O)c12` [Compound 528, N-[4-(3,3-difluoropyrrolidin-1-yl)-2-(trifluoromethyl)phenyl]-5-methyl-4-oxo-1H-quinoline-3-carboxamide]: the EC50 is below 10 µM and the “% Activity” value was “++ (between 25% to 100%)”.

Consider `O=C(Nc1cc(O)c(C2CCCCC2)cc1C(F)(F)F)c1c[nH]c2ccccc2c1=O` [Compound 619, N-[4-cyclohexyl-5-hydroxy-2-(trifluoromethyl)phenyl]-4-oxo-1H-quinoline-3-carboxamide], for which the EC50 is below 10 µM and the “% Activity” value was “+++ (>100%)”.

For the molecule `CC(C)(C)c1cccc(NC(=O)c2c[nH]c3ccc(F)cc3c2=O)c1` [Compound 664, 6-fluoro-4-oxo-N-(3-tert-butylphenyl)-1H-quinoline-3-carboxamide], the EC50 is below 10 µM and the “% Activity” value is given as “++ (between 25% to 100%)”.

For the molecule `CC1(C)CCOc2cc(NC(=O)c3c[nH]c4ccccc4c3=O)ccc21` [Compound 204, N-(4,4-dimethylchroman-7-yl)-4-oxo-1H-quinoline-3-carboxamide], the EC50 was below 10 µM and the “% Activity” value was “++ (between 25% to 100%)”.

As to `Cc1ccc2c(=O)c(C(=O)Nc3cc4[nH]ccc4cc3C(F)(F)F)c[nH]c2c1` [Compound 576, 7-methyl-4-oxo-N-[5-(trifluoromethyl)-1H-indol-6-yl]-1H-quinoline-3-carboxamide], the EC50 is below 10 µM and the “% Activity” value is recorded as “++ (between 25% to 100%)”.

`O=C(Nc1ccc2cc[nH]c2c1)c1cnc2cc(C(F)(F)F)cc(C(F)(F)F)c2c1O` [Compound 130, 4-hydroxy-N-(1H-indol-6-yl)-5,7-bis(trifluoromethyl)quinoline-3-carboxamide]: the EC50 was below 10 µM and the “% Activity” value is “++ (between 25% to 100%)”.

For `O=C(Nc1ccc2cc(C(F)(F)F)[nH]c2c1)c1c[nH]c2ccc(F)cc2c1=O` [Compound 495, 6-fluoro-4-oxo-N-[2-(trifluoromethyl)-1H-indol-6-yl]-1H-quinoline-3-carboxamide], the half-maximal effective concentration (EC50) is below 10 µM and the “% Activity” value is “++ (between 25% to 100%)”.

In the case of `O=C(Nc1cc2[nH]ccc2cc1C(F)(F)F)c1c[nH]c2cccc(O)c2c1=O` [Compound 494, 5-hydroxy-4-oxo-N-[5-(trifluoromethyl)-1H-indol-6-yl]-1H-quinoline-3-carboxamide], the EC50 was below 10 µM and the “% Activity” value is given as “++ (between 25% to 100%)”.

Consider `COc1ccc(NC(C)=O)cc1NC(=O)c1c[nH]c2ccccc2c1=O` [Compound 250, N-(5-acetylamino-2-methoxy-phenyl)-4-oxo-1H-quinoline-3-carboxamide], for which the concentration for a half-maximal effect (EC50) fell in the range of 25 to 60 µM and the “% Activity” value is given as “+ (<25%)”.

`O=C(Nc1ccccc1Oc1ccc(Cl)cc1Cl)c1c[nH]c2ccccc2c1=O` [Compound 245, N-[2-(2,4-dichlorophenoxy)phenyl]-4-oxo-1H-quinoline-3-carboxamide]: the EC50 is below 10 µM and the “% Activity” value is “++ (between 25% to 100%)”.

For `O=C(Nc1ccc(C(F)(F)F)c(O)c1)c1c[nH]c2ccccc2c1=O` [Compound 506, N-[3-hydroxy-4-(trifluoromethyl)phenyl]-4-oxo-1H-quinoline-3-carboxamide], the EC50 was below 10 µM and the “% Activity” value is “++ (between 25% to 100%)”.

As for `O=C(Nc1ccc(N2CC[C@@H](O)C2)cc1C(F)(F)F)c1c[nH]c2ccccc2c1=O` [Compound 705, (R)-N-(4-(3-hydroxypyrrolidin-1-yl)-2-(trifluoromethyl)phenyl)-4-oxo-1,4-dihydroquinoline-3-carboxamide], the EC50 was below 10 µM and the “% Activity” value was “++ (between 25% to 100%)”.

For `O=C(Nc1ccccc1C(F)(F)F)c1c[nH]c2ccccc2c1=O` [Compound 111, 4-oxo-N-[2-(trifluoromethyl)phenyl]-1H-quinoline-3-carboxamide], the EC50 is below 10 µM and the “% Activity” value was “++ (between 25% to 100%)”.

On to `O=C(Nc1cc(C(F)(F)F)cc(C(F)(F)F)c1)c1c[nH]c2ccccc2c1=O` [Compound 154, N-[3,5-bis(trifluoromethyl)phenyl]-4-oxo-1H-quinoline-3-carboxamide], for which the EC50 was in the range of 25 to 60 µM and the “% Activity” value is recorded as “+ (<25%)”.

For `CC(CO)(CO)c1ccc(NC(=O)c2c[nH]c3ccc(F)cc3c2=O)cc1` [Compound 627, 6-fluoro-N-[4-[2-hydroxy-1-(hydroxymethyl)-1-methyl-ethyl]phenyl]-4-oxo-1H-quinoline-3-carboxamide], the EC50 is below 10 µM and the “% Activity” value was “+ (<25%)”.

As for `CCCc1ccc(NC(=O)c2c[nH]c3ccccc3c2=O)cc1NS(C)(=O)=O` [Compound 340, N-(3-methylsulfonylamino-4-propyl-phenyl)-4-oxo-1H-quinoline-3-carboxamide], the EC50 was below 10 µM and the “% Activity” value is reported as “++ (between 25% to 100%)”.

For `COc1ncccc1NC(=O)c1c[nH]c2ccccc2c1=O` [Compound 15, N-(2-methoxy-3-pyridyl)-4-oxo-1H-quinoline-3-carboxamide], the concentration for a half-maximal effect (EC50) was 10 to 25 µM and the “% Activity” value was “++ (between 25% to 100%)”.

Consider `COc1c(C(=O)Nc2ccc(C(C)(C)C)c(O)c2)cnc2ccccc12` [Compound 415, N-(3-Hydroxy-4-tert-butyl-phenyl)-4-methoxy-quinoline-3-carboxamide], for which the EC50 is below 10 µM and the “% Activity” value was “++ (between 25% to 100%)”.

`O=C(Nc1ccc(N2CCC[C@H]2CO)cc1C(F)(F)F)c1c[nH]c2ccccc2c1=O` [Compound 634, (S)-N-(4-(2-(hydroxymethyl)pyrrolidin-1-yl)-2-(trifluoromethyl)phenyl)-4-oxo-1,4-dihydroquinoline-3-carboxamide]: the EC50 was below 10 µM and the “% Activity” value was “++ (between 25% to 100%)”.
